Results reported in publication PMC8178997 (Chemical Science, 2020).
Where no end group is shown, it is not given here.

Target: T1, NCBD (the [2066–2112]-fragment of CBP) (Mus musculus, UniProt P45481)
T1 sequence (P45481 2066-2112): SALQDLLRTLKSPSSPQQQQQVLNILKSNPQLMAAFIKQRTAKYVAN
Test: Isothermal titration calorimetry
Assay type: binding

Sequence: EGQMDERALLEQLHQLLSNTDATGLEEIDRALGIPELVNQGQALEPK [[S1043M;D1050E;T1054Q]]
- Kd: 188 nM
